Results published in patent publication US12076309B2, “Compounds for the treatment of cancers associated with human papillomavirus” (Piramal Enterprises Limited, priority 2011, dated 2024).

Columns and labels:
p53 = experiment: Western blot of p53 in treated HeLa cells; type: cell-based, human; settings: treated 24 h, vs untreated cells, hydrochloride
Experimental: (§1) Materials and Methods: Two cervical cancer cell lines SiHa and HeLa (ATCC), positive for HPV genome were used for evaluation of Compound A and Compound B. The cell lines were transfected with a plasmid vector expressing p53 protein fused with a fluorescent protein EGFP using lipofectamine (Invitrogen, CA, USA). After 48 h of transfection the cells were maintained for 30-45 days in DMEM (Sigma Aldrich, catalogue no. D5546) supplemented with 10% FBS and 800 μg/mL Geneticin (Gibco BRL Life Technologies, Inc) for 30-45 days. The stably expressing cells were expanded and evaluated for the presence of fusion construct under fluorescent microscopy. After 24 h of transfection, the cells were treated separately with Compound A and Compound B (henceforth referred to as treated cells) for 24 h. Cells were harvested and were used for analysis of status of E6, E7, p53 by western blot and by RT-PCR. Cells not treated with the Compound A and Compound B (henceforth referred to as untreated cells) were used as controls. HPV negative C33A cell was used as negative control. The terms fresh medium and culture medium refer to DMEM (catalogue no. D5546).
To prepare whole cell extracts for Western blot, the treated cells were lysed in lysis buffer (50 mM Tris-HCl (pH 7.4), 1% NP-40, 40 mM NaF, 10 mM NaCl, 10 mM Na3VO4, 1 mM phenylmethylsulfonyl fluoride, and 10 mM dithiothreitol and 1 μg/ml each of leupeptin and aprotinin). The cell lysates (50 μg) were resolved by SDS-PAGE and the separated proteins (E6, E7 and p53) were transferred to polyvinylidene difluoride membrane (PVDF) by wet transfer method using Bio-Rad electro-transfer apparatus. After blocking with 10% non-fat milk in Tris buffered saline containing 0.2% Tween-20, the membrane was incubated with the primary antibody, followed by HRP-conjugated secondary antibody. Proteins were visualized by 3, 3′-Di amino benzidine (DAB) method. Similar procedure was followed for untreated cells.
The following antibodies were used for western blot with the indicated dilutions.

E6 = experiment: RT-PCR of E6 transcripts in SiHa cells; type: cell-based, Human papillomavirus; settings: 50 μg/mL, normalized to β-actin, hydrochloride
Experimental: as §1
The expression status for gene E6 and E7 at the transcription level was detected by Reverse Transcriptase PCR (RT-PCR). The RNA was isolated from the treated and untreated cells using Qiagen AllPrep DNA/RNA Mini Kit (Cat. No. 80204). The RNA integrity was checked by visualization under UV after agarose gel electrophoresis. The quantity and purity of RNA was analysed by Nano Drop (Thermo Scientific). The 500 ng of RNA was converted into cDNA using 0.1 μg/μl of Oligo dT (Promega), MMLV-RT, dNTPs, RNA guard and RT buffer (Promega) and incubated at 37° C. for 1 h. The reaction was terminated by heating the reaction mixture at 90° C. for 3 minutes and used for PCR amplification of E6 and E7 genes. The PCR was conducted as follows:
The sequence of the primers are shown below

[1] = test system: SiHa (HPV 16 positive cervical cancer) cell line; experiment: SiHa human cervical cancer xenograft mouse model; type: in vivo; settings: days 1-6 and 12-17, nude mice
Experimental: In vivo efficacy of the compounds of the present invention for the treatment of HPV associated cancer was studied by using SiHa (HPV 16 positive cervical cancer) cell line.
SiHa Human Cervical Cancer Xenograft Mouse Model
Animals used: Nude Nu/J, Homozygous for FOXn1(Nu) male mice, 4 to 6 weeks old, weighing 22 to 25 g (Harlan Laboratories, US). Animals were housed in animal isolator under specified pathogen-free conditions maintained at 22 to 25° C. and 55 to 75% humidity, with a 12-hour light/12-hour dark cycle. The mice were acclimatized for a period of seven days before experimentation. Animals were handled in a laminar flow hood. All food and water was autoclaved.
The adherent SiHa cells (SiHa cell line—ATCC—HBT 35) were harvested using Trypsin-EDTA solution and suspension was centrifuged at 800 rpm for 5 minutes. The supernatant was removed and the cell pellet was re-suspended in 1 mL serum-free MEM medium. […]
Following parameters were observed during treatment: • 1. […] Tumor was measured 2-3 days apart, using vernier caliper.
Tumor volume in mm^3 was calculated using the formula for a prolate ellipsoid: Tumor volume (mm^3)=Length (mm)×[Breadth (mm)^2]×0.5 • assuming specific gravity of tumor as 1 and π as 3
Treated to control ratio (ΔT/ΔC %) on a given day was calculated using the formula:
Growth inhibition (GI) was calculated using the formula GI on Day X=100−ΔT/ΔC% on Day X

Row | SMILES | expression of p53 protein (Western blot) (p53) | expression of p53 protein (Western blot) (p53; listed as compound A) | transcripts for E6 (RT-PCR) (E6) | transcripts for E6 (RT-PCR) (E6; listed as compound A) | tumor growth inhibition ([1]; 35 mg/kg once daily intraperitoneally) | expression of p53 protein (Western blot) (p53; listed as compound B) | transcripts for E6 (RT-PCR) (E6; listed as compound B) | tumor growth inhibition ([1]; 200 mg/kg once daily p.o.)
1 | CN1CC[C@@H](c2c(O)cc(O)c3c(=O)cc(-c4ccccc4Cl)oc23)[C@@H]1CO.Cl [Compound A, (+)-trans-2-(2-Chlorophenyl)-5,7-dihydroxy-8-(2-hydroxymethyl-1-methyl-pyrrolidin-3-yl)-chromen-4-one hydrochloride] | increased expression of p53 protein in a dose dependent manner | significant upregulation | significant inhibition of transcripts | significant downregulation of expression | significant tumor growth inhibition | – | – | –
2 | CN1CC[C@@H](c2c(O)cc(O)c3c(=O)cc(-c4ccc(C(F)(F)F)cc4Cl)oc23)[C@@H]1CO.Cl [Compound B, (+)-trans-2-(2-chloro-4-trifluoromethyl-phenyl)-5,7-dihydroxy-8-(2-hydroxymethyl-1-methyl-pyrrolidin-3-yl)-chromen-4-one hydrochloride] | increased expression of p53 protein in a dose dependent manner | – | significant inhibition of transcripts | – | – | significant upregulation | significant downregulation of expression | significant tumor growth inhibition
